Source: patent US20210269451A1, “PYRIDINYL HETEROCYCLYL COMPOUNDS FOR THE TREATMENT OF AUTOIMMUNE DISEASE” (Hoffmann-La Roche Inc., priority 2018, published 2021)

The compounds below were run against T1, human TLR8 (Homo sapiens, UniProt Q9NR97) (assay: HEK293-Blue-hTLR-8 cells assay). Details: HEK293-Blue-hTLR8 cells, R848 stimulation, 20 hrs, SEAP reporter; read-out: HEK/hTLR8 IC50.
T1 construct: host or cells: HEK293-Blue-hTLR-8 (HEK293)
T1 sequence (Q9NR97 27-1041): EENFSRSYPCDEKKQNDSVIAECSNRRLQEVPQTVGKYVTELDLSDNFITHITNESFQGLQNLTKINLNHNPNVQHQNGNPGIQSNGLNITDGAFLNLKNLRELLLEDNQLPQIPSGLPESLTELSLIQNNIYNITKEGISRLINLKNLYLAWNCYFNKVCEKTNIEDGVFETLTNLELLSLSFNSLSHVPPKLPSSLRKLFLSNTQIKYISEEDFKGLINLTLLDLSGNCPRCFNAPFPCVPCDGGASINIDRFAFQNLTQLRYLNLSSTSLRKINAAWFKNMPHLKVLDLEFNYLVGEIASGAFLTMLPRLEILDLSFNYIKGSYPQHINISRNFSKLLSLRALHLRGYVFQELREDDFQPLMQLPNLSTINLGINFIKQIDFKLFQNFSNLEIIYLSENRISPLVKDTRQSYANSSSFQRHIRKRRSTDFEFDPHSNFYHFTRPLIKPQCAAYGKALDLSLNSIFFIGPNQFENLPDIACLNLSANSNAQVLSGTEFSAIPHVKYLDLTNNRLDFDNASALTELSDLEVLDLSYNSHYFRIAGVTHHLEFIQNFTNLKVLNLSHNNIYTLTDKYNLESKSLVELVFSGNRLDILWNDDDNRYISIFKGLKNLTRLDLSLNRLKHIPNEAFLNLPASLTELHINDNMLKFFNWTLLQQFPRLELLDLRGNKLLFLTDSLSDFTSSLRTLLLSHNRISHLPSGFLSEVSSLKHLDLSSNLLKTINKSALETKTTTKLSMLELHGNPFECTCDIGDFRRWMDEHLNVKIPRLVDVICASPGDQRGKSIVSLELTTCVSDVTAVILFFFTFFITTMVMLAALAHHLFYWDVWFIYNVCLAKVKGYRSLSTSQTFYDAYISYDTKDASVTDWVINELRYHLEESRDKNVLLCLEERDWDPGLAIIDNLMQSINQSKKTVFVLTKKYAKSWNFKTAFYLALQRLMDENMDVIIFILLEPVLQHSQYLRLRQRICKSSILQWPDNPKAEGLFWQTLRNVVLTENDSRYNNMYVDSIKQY
Type: cell-based
Method: The following tests were carried out in order to determine the activity of the compounds of formula (I) and (Ia) in HEK293-Blue-hTLR-7/8/9 cells assay.
HEK293-Blue-hTLR-8 cells assay:
A stable HEK293-Blue-hTLR-8 cell line was purchased from InvivoGen (Cat. #: hkb-htlr8, San Diego, Calif., USA). These cells were originally designed for studying the stimulation of human TLR8 by monitoring the activation of NE-κB. A SEAP (secreted embryonic alkaline phosphatase) reporter gene was placed under the control of the IFN-β minimal promoter fused to five NE-κB and AP-1-binding sites. The SEAP was induced by activating NE-κB and AP-1 via stimulating HEK-Blue hTLR8 cells with TLR8 ligands. Therefore the reporter expression was declined by TLR8 antagonist under the stimulation of a ligand, such as R848, for incubation of 20 hrs. The cell culture supernatant SEAP reporter activity was determined using QUANTI-Blue™ kit (Cat. #: rep-qbl, Invivogen, San Diego, Ca, USA) at a wavelength of 640 nm, a detection medium that turns purple or blue in the presence of alkaline phosphatase.
HEK293-Blue-hTLR8 cells were incubated at a density of 250,000-450,000 cells/mL in a volume of 170 μL in a 96-well plate in Dulbecco's Modified Eagle's medium (DMEM) containing 4.5 g/L glucose, 50 U/mL penicillin, […], […], 2 mM L-glutamine, 10% (v/v) heat-inactivated fetal bovine serum with addition of 20 μL test compound in a serial dilution in the presence of final DMSO at 1% and 10 μL of 60 uM R848 in above DMEM, perform incubation under 37° C. in a CO2 incubator for 20 hrs. Then 20 μL of the supernatant from each well was incubated with 180 μL Quanti-blue substrate solution at 37° C. for 2 hrs and the absorbance was read at 620˜655 nm using a spectrophotometer. The signalling pathway that TLR8 activation leads to downstream NE-κB activation has been widely accepted, and therefore similar reporter assay was modified for evaluating TLR8 antagonist.

Compared with `Cc1cc(N2CCOC3CN(CC4CN(c5ccc(C#N)c6ncccc56)CC(C)O4)CC32)cc(C)n1` (single isomer, unassigned) [Example 17A], `Cc1cc(N2CCC23CN(C[C@H]2CN(c4ccc(C#N)c5ncccc45)C[C@@H](C)O2)C3)cc(C)n1` [Example 8] is higher in IC50: under 3 nM for the first, 7 nM for the second.

Going from `Cc1cc(N2CCOC3CN(CC4CN(c5ccc(C#N)c6ncccc56)CC(C)O4)CC32)cc(C)n1` (single isomer, unassigned) [Example 17B] to `Cc1cc(NC2CN(C[C@H]3CN(c4ccc(C#N)c5ncccc45)C[C@@H](C)O3)C2)cc(C)n1` [Example 7], the IC50 rises from 3 nM to 31 nM (10-fold).

Going from `Cc1cc(N2CC3(CN(C[C@H]4CN(c5ccc(C#N)c6ncccc56)C[C@@H](C)O4)C3)C2)cc(CO)n1` [Example 1, 5-[(2S,6R)-2-[[2-[2-(hydroxymethyl)-6-methyl-4-pyridyl]-2,6-diazaspiro[3.3]heptan-6-yl]methyl]-6-methyl-morpholin-4-yl]quinoline-8-carbonitrile] to `Cc1cc(N2CCC23CN(C[C@H]2CN(c4ccc(C#N)c5ncccc45)C[C@@H](C)O2)C3)cc(CO)n1` [Example 12], the IC50 falls from 81 nM to 12 nM (6.8-fold). The second is the more potent here.

`C[C@@H]1CN(c2ccc(C#N)c3ncccc23)C[C@H](CN2CC3(C2)CN(c2ccnc(C4CC4)c2)CCO3)O1` [Example 3, 5-[(2S,6R)-2-[[8-(2-cyclopropyl-4-pyridyl)-5-oxa-2,8-diazaspiro[3.5]nonan-2-yl]methyl]-6-methyl-morpholin-4-yl]quinoline-8-carbonitrile] and `Cc1cc(N2CCOC3(CN(C[C@H]4CN(c5ccc(C#N)c6ncccc56)C[C@@H](C)O4)C3)C2)ccn1` [Example 16] cannot be ordered by IC50: under 3 nM for the first, under 3 nM for the second.

`Cc1cc(N2CCN(C[C@H]3CN(c4ccc(C#N)c5ncccc45)C[C@@H](C)O3)[C@@H](C)C2)cc(CO)n1` [Example 4A] and `Cc1cc(N2CCN(C[C@H]3CN(c4ccc(C#N)c5ncccc45)C[C@@H](C)O3)[C@H](C)C2)cc(CO)n1` [Example 4B] are within 1.5-fold of each other in IC50: 7 nM for the first, 5 nM for the second.

First: Cc1cc(NC2CCN(C[C@H]3CN(c4ccc(C#N)c5ncccc45)C[C@@H](C)O3)CC2)cc(CO)n1 [Example 5]
Second: Cc1cc(NC2CCN(C[C@H]3CN(c4ccc(C#N)c5ncccc45)C[C@@H](C)O3)C2)cc(CO)n1 (stereo partly drawn) [Example 6]
The IC50 of the first is 1.6-fold lower: 33 nM for the first, 53 nM for the second.

Going from `Cc1cc(N2CCC3(CN(C[C@H]4CN(c5ccc(C#N)c6ncccc56)C[C@@H](C)O4)C3)C2)cc(C)n1` [Example 9] to `Cc1cc(N2CCOC3(CN(C[C@H]4CN(c5ccc(C#N)c6ncccc56)C[C@@H](C)O4)C3)C2)cc(C)n1` [Example 14], the IC50 falls from 51 nM to under 3 nM.

Going from `Cc1cc(N2C[C@H]3CN(C[C@H]4CN(c5ccc(C#N)c6ncccc56)C[C@@H](C)O4)C[C@H]3C2)cc(CO)n1` [Example 10] to `Cc1cc(N2CC(NC[C@H]3CN(c4ccc(C#N)c5ncccc45)C[C@@H](C)O3)C2)cc(CO)n1` [Example 30], the IC50 falls from 22 nM to 14 nM (1.6-fold). The second is the more potent here.

Going from `Cc1cc(N(C)C2CN(C[C@H]3CN(c4ccc(C#N)c5ncccc45)C[C@@H](C)O3)C2)cc(C)n1` [Example 11] to `Cc1cc(N2CC(N(C)C[C@H]3CN(c4ccc(C#N)c5ncccc45)C[C@@H](C)O3)C2)cc(CO)n1` [Example 37], the IC50 falls from 11 nM to under 3 nM.

Going from `Cc1cc(N2CCC23CN(C[C@H]2CN(c4ccc(C#N)c5ncccc45)C[C@@H](C)O2)C3)ccn1` [Example 15] to `C[C@@H]1CN(c2ccc(C#N)c3ncccc23)C[C@H](CN2CCN(c3ccnc(N)c3)CC2)O1` [Example 19, 5-[(2S,6R)-2-[[4-(2-amino-4-pyridyl)piperazin-1-yl]methyl]-6-methyl-morpholin-4-yl]quinoline-8-carbonitrile], the IC50 falls from 6 nM to 3 nM (2-fold).

First: C[C@@H]1CN(c2ccc(C#N)c3ncccc23)C[C@H](CNC2CCN(c3ccnc(N)c3)CC2)O1 [Example 20, 5-[(2S,6R)-2-[[[1-(2-amino-4-pyridyl)-4-piperidyl]amino]methyl]-6-methyl-morpholin-4-yl]quinoline-8-carbonitrile]
Second: C[C@@H]1CN(c2ccc(C#N)c3ncccc23)C[C@H](CN[C@@H]2CCCN(c3ccnc(N)c3)C2)O1 [Example 21, 5-[(2S,6R)-2-[[[(3R)-1-(2-amino-4-pyridyl)-3-piperidyl]amino]methyl]-6-methyl-morpholin-4-yl]quinoline-8-carbonitrile]
The IC50 of the first is 4.7-fold higher: 70 nM for the first, 15 nM for the second.

Compared with `C[C@@H]1CN(c2ccc(C#N)c3ncccc23)C[C@H](CN[C@H]2CCCN(c3ccnc(N)c3)C2)O1` [Example 22], `Cc1cc(N2CCC[C@@H](NC[C@H]3CN(c4ccc(C#N)c5ncccc45)C[C@@H](C)O3)C2)cc(CO)n1` [Example 24] is 3.8-fold lower in IC50: 38 nM for the first, 10 nM for the second. The second is the more potent here.

`Cc1cc(N2CCC(NC[C@H]3CN(c4ccc(C#N)c5ncccc45)C[C@@H](C)O3)CC2)cc(CO)n1` [Example 23] and `Cc1cc(N2CC[C@@H](NC[C@H]3CN(c4ccc(C#N)c5ncccc45)C[C@@H](C)O3)C2)cc(CO)n1` [Example 28] are within 1.5-fold of each other in IC50: 41 nM for the first, 32 nM for the second.

First: Cc1cc(N2CCC[C@H](NC[C@H]3CN(c4ccc(C#N)c5ncccc45)C[C@@H](C)O3)C2)cc(CO)n1 [Example 25]
Second: Cc1cc(N2CC[C@H](NC[C@H]3CN(c4ccc(C#N)c5ncccc45)C[C@@H](C)O3)C2)cc(CO)n1 [Example 29]
The IC50 of the first is 1.8-fold lower: 14 nM for the first, 25 nM for the second.

Going from `Cc1cc(N2CC[C@H](F)[C@H](NC[C@H]3CN(c4ccc(C#N)c5ncccc45)C[C@@H](C)O3)C2)cc(CO)n1` [Example 33] to `Cc1cc(N2CC[C@@H](F)[C@H](NC[C@H]3CN(c4ccc(C#N)c5ncccc45)C[C@@H](C)O3)C2)cc(CO)n1` [Example 34], the IC50 falls from 7 nM to 4 nM (1.8-fold). The second is the more potent here.

Going from `Cc1cc(N2CCC[C@@H](N(C)C[C@H]3CN(c4ccc(C#N)c5ncccc45)C[C@@H](C)O3)C2)cc(CO)n1` [Example 35] to `Cc1cc(N2CCC[C@H](N(C)C[C@H]3CN(c4ccc(C#N)c5ncccc45)C[C@@H](C)O3)C2)cc(CO)n1` [Example 38], the IC50 falls from 9 nM to 4 nM (2.2-fold).

Compared with `Cc1cc(N2CC(NC[C@H]3CN(c4ccc(C#N)c5ncccc45)C[C@@H](C)O3)CC(F)(F)C2)cc(CO)n1` (stereo partly drawn) [Example 36], `Cc1cc(N2CCN(C[C@H]3CN(c4ccc(C#N)c5ncccc45)C[C@@H](C)O3)CC2)cc(N)n1` [Example 40, 5-[(2S,6R)-2-[[4-(2-amino-6-methyl-4-pyridyl)piperazin-1-yl]methyl]-6-methyl-morpholin-4-yl]quinoline-8-carbonitrile] is lower in IC50: 12 nM for the first, under 3 nM for the second.

First: CNc1cc(N2CCN(C[C@H]3CN(c4ccc(C#N)c5ncccc45)C[C@@H](C)O3)CC2)cc(C)n1 [Example 42, 5-[(2R,6S)-2-methyl-6-[[4-[2-methyl-6-(methylamino)-4-pyridyl]piperazin-1-yl]methyl]morpholin-4-yl]quinoline-8-carbonitrile]
Second: Cc1cc(C2CCN(C[C@H]3CN(c4ccc(C#N)c5ncccc45)C[C@@H](C)O3)CC2)cc(N)n1 [Example 43, 5-[(2S,6R)-2-[[4-(2-amino-6-methyl-4-pyridyl)-1-piperidyl]methyl]-6-methyl-morpholin-4-yl]quinoline-8-carbonitrile]
The IC50 of the first is lower: under 3 nM for the first, 18 nM for the second.
